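Assay format: 96-well plates, 48-hour exposure. GI50 = concentration required for 50% inhibition of growth. TGI: total growth inhibition.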
Tests used:
Assay in all cases: NCI anticancer screen, dose series, 48 h
[1] = test system: DU-145 prostate
[2] = test system: K-562 leukemia
[3] = test system: SK-MEL-28 melanoma
[4] = test system: MALME-3M melanoma
[5] = test system: HCC-2998 colon
[6] = test system: MDA-MB-231 breast
[7] = test system: HOP-92 NSCLC
[8] = test system: CCRF-CEM leukemia
[9] = test system: SR leukemia
[10] = test system: IGROV1 ovarian

SMILES	GI50 [1] [µM]	TGI [1] [µM]	GI50 [2] [nM]	TGI [2] [µM]	GI50 [3] [µM]	TGI [3] [µM]	GI50 [4] [nM]	TGI [4] [µM]	GI50 [5] [nM]	TGI [5] [µM]	GI50 [6] [µM]	TGI [6] [µM]	GI50 [7] [nM]	TGI [7] [µM]	GI50 [8] [µM]	TGI [8] [µM]	GI50 [9] [nM]	TGI [9] [µM]	GI50 [10] [nM]	TGI [10] [µM]
Cc1cccc2c1NC(=O)[C@@]21[C@H](C(=O)c2ccccc2)[C@]2(C(=O)Nc3ccccc32)[C@H]2CCCN21	> 100	> 100	33100	> 100	34.3	> 100	31400	> 100	49500	> 100	21.3	> 100	24700	59.1	59.6	> 100	15400	> 100		
CCCCNC(=O)Oc1ccc2c(=O)c3sc4c(=O)c5ccccc5c(=O)c4c3c(=O)c2c1	0.158	0.294	937	11.5	0.224	0.524	117	0.273	511	2.01	1.39	5.91			2	6.83	770	> 100	2230	6.72
COc1cc2c(=O)n(CCCn3ccnc3)c3c4cc5c(cc4ccc3c2cc1OC)OCO5	0.51	> 100	669	> 100	2	> 100	2020	> 100	13400	> 100	1.38	> 100	831	28.9	0.34	> 100	203	> 100	1160	> 86.6
COc1ccccc1N1CCN(C(=O)c2ccc(NS(=O)(=O)c3cccc4cccnc34)cc2)CC1	> 100	> 100	> 100000	> 100	> 100	> 100	> 100000	> 100	> 100000	> 100	> 53.6	> 100	> 100000	> 100	> 100	> 100	> 100000	> 100	> 78400	> 100
O=c1ccccc(-c2ccc(-c3ccco3)cc2)c1O	0.967	> 100	603	> 100	0.79	17.8	2770	26.3	691	33.2	0.704	44.4	2050	39.8	0.505	> 100	581	19.8	633	73.8
O=C1/C=C/[C@@H](O)[C@@H]2C[C@@H](O)C[C@H]2/C=C/CCC[C@H](CO)O1	7.75	> 100			0.626	3.65	1930	7.19	2610	> 100	1.96	4.81	2760	> 100	4.19	> 100	2500	> 100	4200	> 100
C=C1SC(=Nc2ccccc2Cl)N(C(=O)c2sc3ccccc3c2Cl)C1(C)C	11.3	> 100	4510	> 37.4	37.2	> 100	2010	34.6	8540	> 45	8.68	59.5	3470	> 22.8	3.93	> 25.3	7100	> 39.6	6200	> 100
Cc1cccc2c1O/C(=C\c1ncc([N+](=O)[O-])n1C)C2=O	0.238	0.762	304	3.18	0.24	0.688	185	0.474	881	3.59	0.295	1.51	279	1.64	0.0701	0.597		0.0699	217	2.92
CN(C)Cc1cccc(CN(C)C)[c]1[Sn]([Br])([c]1ccccc1)[c]1ccccc1	20.2	49.5			14.5	35.2	12600	27.4			15.9	38.3	2150	9.74	5.45	> 100	2360	12	436	4.52
CC1OC(O[C@H]2/C=C/C=C/C=C/C=C/C=C/C=C/C=C/[C@H](C)[C@@H](O)[C@@H](C)[C@H](C)OC(=O)C[C@H](O)C[C@H](O)CC[C@@H](O)[C@H](O)C[C@H](O)C[C@]3(O)C[C@H](O)[C@@H](C(=O)O)[C@H](C2)O3)C(O)C(N)C1O (stereo partly drawn)	12.7	39.2		> 100	12	35.2	5470	15.3		61.2	32.9	48.2		52.9	9.99	48.6		44.8		20.7
COc1ccc(-c2nc(N)c3ncn(C4OC(CO)C(O)C4O)c3n2)cc1 (stereo not drawn)		> 100		> 100		> 100		> 100				> 100		> 100		> 100		> 100		> 100
O=C1CC2C(=O)C1C(C(=O)O)C2C(=O)O (stereo not drawn)		> 100		> 100		> 100		> 100				> 100		> 100		> 100		> 100		> 100
O=C1C(Cl)=C(Nc2cccc(O)c2)C(=O)N1c1cccc(Cl)c1	69.5	> 100	29800	79	85.7	> 100	51700	> 100			35.8	> 100			10.7	31.8	27000	> 100	18300	51.4

From PubChem BioAssay (NCI)
